In the supplement of paper PMC12076712:

What was measured:
Assay in all cases: pIC50, kinobeads binding competition
EIF2AK3 = biological target: T1, EIF2AK3 (UniProt Q9NZJ5); details: cell material: Lysate mix
T1 sequence (whole entry): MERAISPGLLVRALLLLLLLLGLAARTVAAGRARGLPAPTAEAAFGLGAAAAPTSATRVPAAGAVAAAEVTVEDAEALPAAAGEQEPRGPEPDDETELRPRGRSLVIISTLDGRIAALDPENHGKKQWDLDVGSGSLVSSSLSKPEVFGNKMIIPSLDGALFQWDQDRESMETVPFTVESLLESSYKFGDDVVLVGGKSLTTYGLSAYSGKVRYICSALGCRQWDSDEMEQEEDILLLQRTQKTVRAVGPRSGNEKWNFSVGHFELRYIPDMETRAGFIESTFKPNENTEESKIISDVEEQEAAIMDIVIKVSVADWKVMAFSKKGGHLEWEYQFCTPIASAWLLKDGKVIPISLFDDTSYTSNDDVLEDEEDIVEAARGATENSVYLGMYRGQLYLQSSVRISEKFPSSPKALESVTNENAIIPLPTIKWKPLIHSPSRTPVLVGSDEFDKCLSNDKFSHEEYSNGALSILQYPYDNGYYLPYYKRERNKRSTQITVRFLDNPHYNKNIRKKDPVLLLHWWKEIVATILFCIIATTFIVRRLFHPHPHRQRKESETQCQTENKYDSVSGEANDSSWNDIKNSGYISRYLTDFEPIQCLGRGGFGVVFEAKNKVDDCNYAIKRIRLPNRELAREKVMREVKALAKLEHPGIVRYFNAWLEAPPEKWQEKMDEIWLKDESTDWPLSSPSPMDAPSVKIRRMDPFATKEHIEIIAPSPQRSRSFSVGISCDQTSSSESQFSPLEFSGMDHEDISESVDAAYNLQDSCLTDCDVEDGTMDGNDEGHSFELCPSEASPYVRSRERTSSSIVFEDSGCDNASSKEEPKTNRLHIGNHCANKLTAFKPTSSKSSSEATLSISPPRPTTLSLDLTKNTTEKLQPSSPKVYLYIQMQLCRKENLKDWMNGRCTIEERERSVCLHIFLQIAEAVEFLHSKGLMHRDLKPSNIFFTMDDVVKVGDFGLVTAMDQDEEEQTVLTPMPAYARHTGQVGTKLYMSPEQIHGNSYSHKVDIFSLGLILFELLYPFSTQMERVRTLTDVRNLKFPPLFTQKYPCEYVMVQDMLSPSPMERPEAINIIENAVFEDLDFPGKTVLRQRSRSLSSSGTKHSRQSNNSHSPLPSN
Outline: (§1)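 pIC50 was obtained by fitting fold changes against vehicle to logistic dose-response curves with the R drc package, using biological duplicates. Kinobeads-bound proteins were digested and measured by TMT10 LC-MS/MS. Before this, either living Jurkat cells received nine compound concentrations (top 30 μM, 1:4 steps) for 60 min at 37 °C prior to lysis, or Jurkat lysate or a 1:1:1:1 HEK293/K-562/HepG2/placenta lysate mix received nine concentrations (top 30 μM, 1:5 steps) for 60 min at 4 °C.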

PRKD3 = biological target: T2, PRKD3 (UniProt O94806)
T2 sequence (whole entry): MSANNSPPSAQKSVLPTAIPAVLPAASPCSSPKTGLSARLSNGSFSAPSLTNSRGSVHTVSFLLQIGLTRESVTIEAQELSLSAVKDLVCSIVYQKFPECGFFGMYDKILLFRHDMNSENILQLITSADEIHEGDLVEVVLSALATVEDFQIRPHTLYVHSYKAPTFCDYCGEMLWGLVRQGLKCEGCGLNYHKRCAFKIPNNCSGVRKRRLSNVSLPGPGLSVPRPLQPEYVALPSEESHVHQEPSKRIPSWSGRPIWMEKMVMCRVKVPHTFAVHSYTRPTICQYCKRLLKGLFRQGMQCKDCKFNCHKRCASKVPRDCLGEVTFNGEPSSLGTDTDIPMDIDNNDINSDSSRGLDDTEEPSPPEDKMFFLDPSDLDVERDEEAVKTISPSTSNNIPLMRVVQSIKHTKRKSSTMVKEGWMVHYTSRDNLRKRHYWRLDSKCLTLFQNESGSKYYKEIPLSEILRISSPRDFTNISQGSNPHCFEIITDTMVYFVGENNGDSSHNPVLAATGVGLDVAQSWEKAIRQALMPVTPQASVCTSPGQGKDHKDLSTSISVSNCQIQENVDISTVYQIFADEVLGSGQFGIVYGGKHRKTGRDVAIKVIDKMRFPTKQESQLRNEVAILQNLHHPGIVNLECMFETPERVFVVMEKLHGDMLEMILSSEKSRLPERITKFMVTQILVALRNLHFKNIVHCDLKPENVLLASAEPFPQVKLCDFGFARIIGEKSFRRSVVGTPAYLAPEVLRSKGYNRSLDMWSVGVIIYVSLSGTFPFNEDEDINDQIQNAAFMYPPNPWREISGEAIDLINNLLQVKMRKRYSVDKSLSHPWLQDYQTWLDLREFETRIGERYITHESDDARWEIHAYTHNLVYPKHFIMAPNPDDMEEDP
Outline: as §1

PRKD2 = biological target: T3, PRKD2 (UniProt Q9BZL6)
T3 sequence (whole entry): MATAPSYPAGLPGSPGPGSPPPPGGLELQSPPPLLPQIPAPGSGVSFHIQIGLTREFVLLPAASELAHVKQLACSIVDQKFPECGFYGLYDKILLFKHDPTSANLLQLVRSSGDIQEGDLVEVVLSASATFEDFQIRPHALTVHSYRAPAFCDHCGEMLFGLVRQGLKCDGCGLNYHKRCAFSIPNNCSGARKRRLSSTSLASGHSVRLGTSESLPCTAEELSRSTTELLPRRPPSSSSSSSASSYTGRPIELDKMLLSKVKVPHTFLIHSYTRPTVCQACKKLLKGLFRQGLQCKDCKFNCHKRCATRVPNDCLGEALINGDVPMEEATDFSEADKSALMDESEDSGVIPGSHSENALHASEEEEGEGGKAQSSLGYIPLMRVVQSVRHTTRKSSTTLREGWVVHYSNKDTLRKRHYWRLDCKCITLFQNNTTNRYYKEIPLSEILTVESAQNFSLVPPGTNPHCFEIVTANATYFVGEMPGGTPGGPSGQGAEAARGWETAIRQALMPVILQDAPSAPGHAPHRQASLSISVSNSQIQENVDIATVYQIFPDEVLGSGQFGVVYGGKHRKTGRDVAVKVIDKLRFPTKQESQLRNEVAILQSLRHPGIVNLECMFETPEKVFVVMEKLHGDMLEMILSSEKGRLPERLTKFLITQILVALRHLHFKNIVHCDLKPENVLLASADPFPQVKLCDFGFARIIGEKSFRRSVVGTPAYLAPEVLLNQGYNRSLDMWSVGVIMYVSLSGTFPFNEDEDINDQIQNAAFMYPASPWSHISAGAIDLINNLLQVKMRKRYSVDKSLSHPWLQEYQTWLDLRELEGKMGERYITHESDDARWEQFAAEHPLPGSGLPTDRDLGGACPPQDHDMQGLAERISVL
Outline: as §1

C#CCNC(=O)c1cc(Nc2cc(C3CC3)[nH]n2)nc(N2CCN(Cc3ccc(S(=O)(=O)F)cc3)CC2)n1
pIC50 (EIF2AK3): < 4.52
pIC50 (PRKD3; cell material: Jurkat cells): 5.32
pIC50 (PRKD3; cell material: Jurkat lysate): < 4.52
pIC50 (PRKD3; cell material: Lysate mix): < 4.52
pIC50 (PRKD2; cell material: Jurkat cells): 5.42
pIC50 (PRKD2; cell material: Jurkat lysate): < 4.52
pIC50 (PRKD2; cell material: Lysate mix): < 4.52

C#CCNC(=O)c1cc(Nc2cc(C)[nH]n2)nc(N2CCN(Cc3ccc(S(=O)(=O)F)cc3)CC2)n1
pIC50 (EIF2AK3): < 4.52
pIC50 (PRKD3; cell material: Lysate mix): < 4.52
pIC50 (PRKD2; cell material: Lysate mix): < 4.52

Cc1cc(Nc2cc(C(=O)NCCNC(=O)OC3CC/C=C/CCC3)nc(N3CCN(Cc4ccc(S(=O)(=O)F)cc4)CC3)n2)n[nH]1 (stereo not given)
pIC50 (EIF2AK3): < 4.52
pIC50 (PRKD3; cell material: Lysate mix): < 4.52
pIC50 (PRKD2; cell material: Lysate mix): < 4.52

O=C(NCCNC(=O)c1cc(Nc2cc(C3CC3)[nH]n2)nc(N2CCN(Cc3ccc(S(=O)(=O)F)cc3)CC2)n1)OC1CC/C=C/CCC1 (stereo not given)
pIC50 (EIF2AK3): < 4.52
pIC50 (PRKD3; cell material: Jurkat lysate): < 4.52
pIC50 (PRKD3; cell material: Lysate mix): < 4.52
pIC50 (PRKD2; cell material: Jurkat cells): < 4.52
pIC50 (PRKD2; cell material: Jurkat lysate): < 4.52
pIC50 (PRKD2; cell material: Lysate mix): < 4.52

CCNC(=O)c1cc(Nc2cc(C)[nH]n2)nc(N2CCN(Cc3ccc(S(=O)(=O)F)cc3)CC2)n1
pIC50 (EIF2AK3): < 4.52
pIC50 (PRKD3; cell material: Lysate mix): < 4.52
pIC50 (PRKD2; cell material: Lysate mix): < 4.52

CCNC(=O)c1cc(Nc2cc(C3CC3)[nH]n2)nc(N2CCN(Cc3ccc(S(=O)(=O)F)cc3)CC2)n1
pIC50 (EIF2AK3): < 4.52
pIC50 (PRKD3; cell material: Lysate mix): < 4.52
pIC50 (PRKD2; cell material: Lysate mix): < 4.52
